In PubChem BioAssay (NCI):
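Test compounds were applied to cells in 96-well plates for 48 hours at 5 doses. GI50 = concentration required for 50% inhibition of growth. Definition used: TGI = concentration required for complete inhibition of growth.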

Columns and labels:
Assay in all cases: growth of human tumour cells (NCI), 48 h
HCT-116 colon = system: HCT-116 colon
HOP-62 NSCLC = system: HOP-62 NSCLC
HT29 colon = system: HT29 colon
KM12 colon = system: KM12 colon
NCI-H522 lung = system: NCI-H522 lung
RXF 393 renal = system: RXF 393 renal
SK-MEL-28 melanoma = system: SK-MEL-28 melanoma
SN12C renal = system: SN12C renal
SNB-19 CNS = system: SNB-19 CNS

SMILES	TGI (HCT-116 colon) [µM]	TGI (HOP-62 NSCLC) [µM]	TGI (HT29 colon) [µM]	TGI (KM12 colon) [µM]	TGI (NCI-H522 lung) [µM]	TGI (RXF 393 renal) [µM]	TGI (SK-MEL-28 melanoma) [µM]	TGI (SN12C renal) [µM]	TGI (SNB-19 CNS) [µM]	GI50 (HCT-116 colon) [µM]	GI50 (HOP-62 NSCLC) [µM]	GI50 (HT29 colon) [µM]	GI50 (NCI-H522 lung) [µM]	GI50 (RXF 393 renal) [µM]	GI50 (SK-MEL-28 melanoma) [µM]	GI50 (SN12C renal) [µM]	GI50 (SNB-19 CNS) [µM]	GI50 (KM12 colon) [µM]
NCc1nnn(Cc2ccccc2)c1N	> 100	> 100	> 100	> 100	> 100	> 100	> 100	> 100	> 100	–	–	–	–	–	–	–	–	–
CCCc1nc2c(C)cc(-c3nc4ccccc4n3C)cc2n1Cc1ccc(-c2ccccc2C(=O)O)cc1	> 100	> 100	> 100	–	46.5	82.2	> 100	> 100	> 100	43.4	43.5	35.8	22	22.4	25.7	33.3	39.4	–
O=C(/C=C\c1ccc(Cl)cc1Cl)c1cccs1	23.5	56.2	64.5	38.8	50.3	44.3	42.3	32.1	33.7	–	–	–	–	–	–	–	–	–
COc1ccc(/C(C)=N/OC(=O)c2c(-c3ccccc3Cl)noc2C)cc1CN1CCOCC1	36.5	62.1	36.9	70.5	48.3	77.8	54.4	51.3	46.2	–	–	–	–	–	–	–	–	–
NS(=O)(=O)c1ccc(CCN=C=S)cc1	3.45	10.1	6.66	3.06	3.57	3.18	7.28	5.14	9.26	1.75	3.23	2.54	1.37	1.62	2.59	2.17	2.92	1.47
COc1ccc(-c2nc(-c3nc4ccc(OC)cc4[nH]3)cc3c2[nH]c2ccccc23)cc1	> 100	> 100	> 100	> 100	> 100	> 100	> 100	> 100	> 100	2.48	4.24	3.46	2.7	2.77	> 100	3.49	3.37	2.57
CCOC(=O)c1c(C(F)(F)F)n([O-])c2ccc(OC)cc2[n+]1=O	18.3	21.9	> 100	> 100	31	> 100	> 100	22.2	56.6	4.13	3.89	7.89	6.52	23.8	20.3	2.84	3.77	7.99
COc1cc(C(=O)c2cc3c(cc2C)OCO3)cc(OC)c1OC	> 100	> 100	> 100	> 100	3.9	> 100	> 100	> 100	> 100	0.0682	0.17	0.105	0.26	0.0515	0.0879	0.289	–	0.07
